# Values quoted from earlier work, collected in patent US5969096A (priority 1998, dated 1999).
# Target: neuronal voltage-sensitive Ca2+ channels
substance,measurement,value
ω-conotoxin GVIA,affinity (Kd) for high-affinity targets,sub-picomolar
same,time for 50% of the peptide to dissociate,more than 7 hours
